In patent US7160908B2, “Dynamic anticancer platinum compounds” (Unitech Pharmaceuticals, Inc., priority 2003, dated 2007):

Tests used:
[1] = tested on: Colon, HT-29 Tumor Cells; experiment: Anti-proliferative activity, alamarBlue cell viability, HT-29; type: cell-based, human; conditions: for Percent Growth (Mean of 2): 72-hour incubation, vehicle = 100
Experimental: (§1) UTD-4-A was dissolved in 100% DMSO and then diluted with sterile distilled water to obtain initial working solutions of […] in 40% DMSO. A 100-fold dilution was further made in culture media to generate final assay concentrations of […] in 0.4% DMSO.
(§2) Aliquots of […] of cell suspension (about 2.5×10^3/well) were placed in 96-well microtiter plates in an atmosphere of 5% CO2 at 37° C. After 24 hours, […] of growth medium and […] of test solution or vehicle (40% DMSO) were added respectively per well in duplicate for an additional 72-hour incubation.
(§3) Thus, the final concentration of DMSO was 0.4%. The test compound, UTD-4-A, was evaluated at concentrations of […]. At the end of incubation, […] of 90% alamarBlue reagent was added to each well for another 6-hour incubation before detection of cell viability by fluorescent intensity. Fluorescent intensity was measured using a Spectraflour Plus plate reader with excitation at 530 nm and emission at 590 nm.

[2] = tested on: Ovary, OVCAR-3 Tumor Cell; experiment: Anti-proliferative activity, alamarBlue cell viability, OVCAR-3; type: cell-based, human; conditions: for Percent Growth (Mean of 2): 72-hour incubation, vehicle = 100
Experimental: as §1, §2, §3

[3] = concentrations between 10 and 100 μM

cis-[Pt(NH3)(NH2—CHCH3—CO—O)]Cl [UTD-4-A]
Percent Growth (Mean of 2) ([1]; 1 μM): 100 ± 6
Percent Growth (Mean of 2) ([1]; 10 μM): 95 ± 8
Percent Growth (Mean of 2) ([1]; 100 μM): 41 ± 4
growth inhibition relative to the vehicle-treated control [1, 3]: significant growth inhibition
Percent Growth (Mean of 2) ([2]; 1 μM): 100 ± 6
Percent Growth (Mean of 2) ([2]; 10 μM): 85 ± 3
Percent Growth (Mean of 2) ([2]; 100 μM): 30 ± 3
growth inhibition relative to the vehicle-treated control [2, 3]: significant growth inhibition
